Reference: ChEMBL document CHEMBL1201861, “Genomics of Drug Sensitity in Cancer screening data, Wellcome Trust Sanger Institute”

Experiments:
HCC1599 = assay: cells; assay type: functional, cell-based, Homo sapiens; settings: Homo sapiens, HCC1599;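 note: growth inhibition of HCC1599 cells, read out in a cell viability assay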
Description: SANGER: Inhibition of human HCC1599 cell growth in a cell viability assay.

RMG-I = assay: cells; assay type: functional, cell-based, Homo sapiens; settings: Homo sapiens, RMG-I;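 note: growth inhibition of human RMG-I cells, read out with a cell viability assay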
Description: SANGER: Inhibition of human RMG-I cell growth in a cell viability assay.

A 172 = assay: cells; assay type: functional, cell-based, Homo sapiens; settings: Homo sapiens, A 172;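 note: growth inhibition of A172 cells, measured with a cell viability readout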
Description: SANGER: Inhibition of human A172 cell growth in a cell viability assay.

NCI-H1993 = assay: cells; assay type: functional, cell-based, Homo sapiens; settings: Homo sapiens, NCI-H1993;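 note: growth inhibition of the cancer cell line, assessed with a cell viability assay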
Description: SANGER: Inhibition of human NCI-H1993 cell growth in a cell viability assay.

CAL-51 = assay: cells; assay type: functional, cell-based, Homo sapiens; settings: Homo sapiens, CAL-51;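 note: human CAL-51 cell line, growth inhibition read out via a cell viability assay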
Description: SANGER: Inhibition of human CAL-51 cell growth in a cell viability assay.

K052 = assay: cells; assay type: functional, cell-based, Homo sapiens; settings: Homo sapiens, K052;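 note: Read-out from a cell viability assay, IC50 reflecting suppression of K052 cell growth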
Description: SANGER: Inhibition of human K052 cell growth in a cell viability assay.

MDA-MB-134-VI = assay: cells; assay type: functional, cell-based, Homo sapiens; settings: Homo sapiens, MDA-MB-134-VI
Description: SANGER: Inhibition of human MDA-MB-134-VI cell growth in a cell viability assay.

HCT-15 = assay: cells; assay type: functional, cell-based, Homo sapiens; settings: Homo sapiens, HCT-15;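 note: cell viability readout, IC50 reflecting suppression of HCT-15 cell growth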
Description: SANGER: Inhibition of human HCT-15 cell growth in a cell viability assay.

CAKI-1 = assay: cells; assay type: functional, cell-based, Homo sapiens; settings: Homo sapiens, CAKI-1;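 note: growth inhibition of CAKI-1 cells, measured by a cell viability assay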
Description: SANGER: Inhibition of human CAKI-1 cell growth in a cell viability assay.

NCI-H1792 = assay: cells; assay type: functional, cell-based, Homo sapiens; settings: Homo sapiens, NCI-H1792;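 note: growth inhibition of human NCI-H1792 cells, read out as cell viability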
Description: SANGER: Inhibition of human NCI-H1792 cell growth in a cell viability assay.

IST-SL2 = assay: cells; assay type: functional, cell-based, Homo sapiens; settings: Homo sapiens, IST-SL2;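 note: growth inhibition of human IST-SL2 cells, read out by a cell viability assay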
Description: SANGER: Inhibition of human IST-SL2 cell growth in a cell viability assay.

HCC1806 = assay: cells; assay type: functional, cell-based, Homo sapiens; settings: Homo sapiens, HCC1806;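 note: growth inhibition of the cancer cell line, determined with a cell viability assay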
Description: SANGER: Inhibition of human HCC1806 cell growth in a cell viability assay.

Detroit 562 = assay: cells; assay type: functional, cell-based, Homo sapiens; settings: Homo sapiens, Detroit 562;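 note: growth inhibition of human Detroit 562 cells, read out by a cell viability assay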
Description: SANGER: Inhibition of human Detroit562 cell growth in a cell viability assay.

NCI-H719 = assay: cells; assay type: functional, cell-based, Homo sapiens; settings: Homo sapiens, NCI-H719;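 note: growth inhibition of the cultured cell line, read out with a viability assay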
Description: SANGER: Inhibition of human NCI-H719 cell growth in a cell viability assay.

HT-1376 = assay: cells; assay type: functional, cell-based, Homo sapiens; settings: Homo sapiens, HT-1376
Description: SANGER: Inhibition of human HT-1376 cell growth in a cell viability assay.

SK-HEP1 = assay: cells; assay type: functional, cell-based, Homo sapiens, SK-HEP-1; settings: Homo sapiens, SK-HEP1;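 note: cell viability readout used to quantify reduction in proliferation of human SK-HEP-1 cells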
Description: SANGER: Inhibition of human SK-HEP-1 cell growth in a cell viability assay.

Capan-2 = assay: cells; assay type: functional, cell-based, Homo sapiens; settings: Homo sapiens, Capan-2;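 note: Capan-2 cell growth inhibition, read out with a viability assay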
Description: SANGER: Inhibition of human Capan-2 cell growth in a cell viability assay.

NCI-H522 = assay: cells; assay type: functional, cell-based, Homo sapiens; settings: Homo sapiens, NCI-H522;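 note: cell viability assay measuring growth inhibition of human NCI-H522 cells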
Description: SANGER: Inhibition of human NCI-H522 cell growth in a cell viability assay.

MIA PaCa-2 = assay: cells; assay type: functional, cell-based, Homo sapiens; settings: Homo sapiens, MIA PaCa-2;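 note: growth inhibition of MIA PaCa-2 cells, read out with a cell viability assay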
Description: SANGER: Inhibition of human MIA-PaCa-2 cell growth in a cell viability assay.

U-698-M = assay: cells; assay type: functional, cell-based, Homo sapiens; settings: Homo sapiens, U-698-M
Description: SANGER: Inhibition of human U-698-M cell growth in a cell viability assay.

M059J = assay: cells; assay type: functional, cell-based, Homo sapiens; settings: Homo sapiens, M059J;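 note: growth inhibition of M059J cells, read out with a cell viability assay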
Description: SANGER: Inhibition of human M059J cell growth in a cell viability assay.

NCI-H358 = assay: cells; assay type: functional, cell-based, Homo sapiens; settings: Homo sapiens, NCI-H358;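 note: growth inhibition of NCI-H358 human cells, read out with a cell viability assay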
Description: SANGER: Inhibition of human NCI-H358 cell growth in a cell viability assay.

RPMI-2650 = assay: cells; assay type: functional, cell-based, Homo sapiens; settings: Homo sapiens, RPMI-2650
Description: SANGER: Inhibition of human RPMI-2650 cell growth in a cell viability assay.

CAL-12T = assay: cells; assay type: functional, cell-based, Homo sapiens; settings: Homo sapiens, CAL-12T;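 note: growth inhibition of human CAL-12T cells, read out with a cell viability assay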
Description: SANGER: Inhibition of human CAL-12T cell growth in a cell viability assay.

BL-70 = assay: SANGER: Inhibition of human BL-70 cell growth in a cell viability assay.; assay type: functional, cell-based; settings: Homo sapiens, BL-70
SK-OV-3 = assay: cells; assay type: functional, cell-based, Homo sapiens; settings: Homo sapiens, SK-OV-3;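 note: growth inhibition of SK-OV-3 human cells, read out with a cell viability assay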
Description: SANGER: Inhibition of human SK-OV-3 cell growth in a cell viability assay.

KYSE-150 cell line = assay: cells; assay type: functional, cell-based, Homo sapiens; settings: Homo sapiens, KYSE-150;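 note: growth inhibition of human KYSE-150 cells, read out with a cell viability assay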
Description: SANGER: Inhibition of human KYSE-150 cell growth in a cell viability assay.

IM-9 = assay: SANGER: Inhibition of human IM-9 cell growth in a cell viability assay.; assay type: functional, cell-based; settings: Homo sapiens, IM-9
U-251 = assay: cells; assay type: functional, cell-based, Homo sapiens; settings: Homo sapiens, U-251;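 note: growth inhibition of human U-251 cells, read out through a cell viability assay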
Description: SANGER: Inhibition of human U251 cell growth in a cell viability assay.

SJRH30 = assay: cells; assay type: functional, cell-based, Homo sapiens; settings: Homo sapiens, SJRH30;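 note: growth inhibition of human SJRH30 cells, read out with a cell viability assay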
Description: SANGER: Inhibition of human SJRH30 cell growth in a cell viability assay.

CAL-85-1 = assay: cells; assay type: functional, cell-based, Homo sapiens; settings: Homo sapiens, CAL-85-1;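 note: growth inhibition of human CAL-85-1 cells, read out with a cell viability assay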
Description: SANGER: Inhibition of human CAL-85-1 cell growth in a cell viability assay.

ME-180 = assay: cells; assay type: functional, cell-based, Homo sapiens; settings: Homo sapiens, ME-180;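 note: cell viability assay measuring growth inhibition of ME-180 cells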
Description: SANGER: Inhibition of human ME-180 cell growth in a cell viability assay.

HCC38 = assay: cells; assay type: functional, cell-based, Homo sapiens; settings: Homo sapiens, HCC38;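 note: cell viability assay on the human HCC38 cell line, with IC50 marking the concentration that inhibits cell growth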
Description: SANGER: Inhibition of human HCC38 cell growth in a cell viability assay.

GP5d = assay: cells; assay type: functional, cell-based, Homo sapiens; settings: Homo sapiens, GP5d;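 note: growth inhibition of human GP5d cells, read out with a cell viability assay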
Description: SANGER: Inhibition of human GP5d cell growth in a cell viability assay.

LP-1 = assay: cells; assay type: functional, cell-based, Homo sapiens; settings: Homo sapiens, LP-1;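 note: growth inhibition of human LP-1 cells, with the read-out taken from a cell viability assay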
Description: SANGER: Inhibition of human LP-1 cell growth in a cell viability assay.

UACC-893 = assay: cells; assay type: functional, cell-based, Homo sapiens; settings: Homo sapiens, UACC-893
Description: SANGER: Inhibition of human UACC-893 cell growth in a cell viability assay.

EHEB = assay: cells; assay type: functional, cell-based, Homo sapiens; settings: Homo sapiens, EHEB;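 note: growth inhibition of human EHEB cells, read out with a cell viability assay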
Description: SANGER: Inhibition of human EHEB cell growth in a cell viability assay.

BFTC-905 = assay: cells; assay type: functional, cell-based, Homo sapiens; settings: Homo sapiens, BFTC-905
Description: SANGER: Inhibition of human BFTC-905 cell growth in a cell viability assay.

MHH-ES-1 = assay: cells; assay type: functional, cell-based, Homo sapiens; settings: Homo sapiens, MHH-ES-1
Description: SANGER: Inhibition of human MHH-ES-1 cell growth in a cell viability assay.

ABC-1 = assay: cells; assay type: functional, cell-based, Homo sapiens; settings: Homo sapiens, ABC-1;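 note: growth inhibition of human ABC-1 cells, read out by a cell viability assay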
Description: SANGER: Inhibition of human ABC-1 cell growth in a cell viability assay.

KOSC-2 = assay: cells; assay type: functional, cell-based, Homo sapiens; settings: Homo sapiens, KOSC-2;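 note: growth inhibition of KOSC-2 cells, read out by a cell viability assay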
Description: SANGER: Inhibition of human KOSC-2 cell growth in a cell viability assay.

OAW-28 = assay: cells; assay type: functional, cell-based, Homo sapiens; settings: Homo sapiens, OAW-28;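 note: growth inhibition of OAW-28 cells, read out with a cell viability assay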
Description: SANGER: Inhibition of human OAW-28 cell growth in a cell viability assay.

NCI-H64 = assay: cells; assay type: functional, cell-based, Homo sapiens; settings: Homo sapiens, NCI-H64;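 note: growth inhibition of NCI-H64 cells, read out with a cell viability assay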
Description: SANGER: Inhibition of human NCI-H64 cell growth in a cell viability assay.

CHP-212 = assay: cells; assay type: functional, cell-based, Homo sapiens; settings: Homo sapiens, CHP-212
Description: SANGER: Inhibition of human CHP-212 cell growth in a cell viability assay.

KP-N-YN = assay: cells; assay type: functional, cell-based, Homo sapiens; settings: Homo sapiens, KP-N-YN;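 note: growth inhibition of KP-N-YN cells, read out with a cell viability assay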
Description: SANGER: Inhibition of human KP-N-YN cell growth in a cell viability assay.

For `Nc1ccn([C@@H]2O[C@H](CO)[C@@H](O)C2(F)F)c(=O)n1` [GEMCITABINE], the IC50 (HCC1599) was 70.2 nM, the IC50 (RMG-I) was > 1020 nM and the IC50 (A 172) was 24.7 nM. The IC50 (NCI-H1993) was > 1020 nM, the IC50 (CAL-51) was 191 nM and the IC50 (K052) was 137 nM. The IC50 (MDA-MB-134-VI) was > 1020 nM, the IC50 (HCT-15) was 82.2 nM and the IC50 (CAKI-1) was > 1020 nM. For the same molecule, the IC50 (NCI-H1792) was 259 nM, the IC50 (IST-SL2) was < 4 nM and the IC50 (HCC1806) was 2.91 nM. The IC50 (Detroit 562) was 10.4 nM, the IC50 (NCI-H719) was 892 nM and the IC50 (HT-1376) was 369 nM. The IC50 (SK-HEP1) was 6.14 nM, the IC50 (Capan-2) was > 1020 nM and the IC50 (NCI-H522) was 4.34 nM. For the same molecule, the IC50 (MIA PaCa-2) was 23.4 nM, the IC50 (U-698-M) was 345 nM and the IC50 (M059J) was 21.1 nM. The IC50 (NCI-H358) was 7.16 nM, the IC50 (RPMI-2650) was 17.6 nM and the IC50 (CAL-12T) was 1.08 nM. For the same molecule, the IC50 (BL-70) was 111 nM, the IC50 (SK-OV-3) was 38.7 nM and the IC50 (KYSE-150 cell line) was 8.47 nM. It also gave an IC50 (IM-9) of 347 nM, an IC50 (U-251) of 22.3 nM and an IC50 (SJRH30) of 106 nM. It also gave an IC50 (CAL-85-1) of 145 nM, an IC50 (ME-180) of 38.8 nM and an IC50 (HCC38) of 21.9 nM. For the same molecule, the IC50 (GP5d) was 28.7 nM, the IC50 (LP-1) was > 1020 nM and the IC50 (UACC-893) was > 1020 nM. For the same molecule, the IC50 (EHEB) was 227 nM, the IC50 (BFTC-905) was < 4 nM and the IC50 (MHH-ES-1) was < 4 nM. For the same molecule, the IC50 (ABC-1) was 22.6 nM, the IC50 (KOSC-2) was > 1020 nM and the IC50 (OAW-28) was 45.4 nM. It also gave an IC50 (NCI-H64) of 151 nM and an IC50 (CHP-212) of 2.75 nM.
With `COc1cc2ncn(-c3cc(OCc4ccccc4S(C)(=O)=O)c(C#N)s3)c2cc1OC` [GSK-319347A] the IC50 (HCC1599) was > 5000 nM, the IC50 (KP-N-YN) was > 5000 nM and the IC50 (K052) was > 5000 nM. For the same molecule, the IC50 (MDA-MB-134-VI) was > 5000 nM, the IC50 (IST-SL2) was > 5000 nM and the IC50 (NCI-H719) was > 5000 nM. The IC50 (U-698-M) was > 5000 nM, the IC50 (BL-70) was > 5000 nM and the IC50 (IM-9) was > 5000 nM. The IC50 (LP-1) was > 5000 nM and the IC50 (NCI-H64) was > 5000 nM.
For `COc1cc2ncn(-c3cc(OCc4ccccc4C(F)(F)F)c(C(N)=O)s3)c2cc1OC` [GW843682X], the IC50 (HCC1599) was 18.5 nM, the IC50 (K052) was 35.4 nM and the IC50 (MDA-MB-134-VI) was > 256 nM. The IC50 (IST-SL2) was 112 nM, the IC50 (NCI-H719) was > 256 nM and the IC50 (U-698-M) was > 256 nM. The IC50 (BL-70) was 8.55 nM, the IC50 (IM-9) was > 256 nM and the IC50 (LP-1) was 62.5 nM. For the same molecule, the IC50 (EHEB) was > 256 nM and the IC50 (NCI-H64) was > 256 nM.
With `CC(=O)O[C@H]1C(=O)[C@@]2(C)[C@H]([C@H](OC(=O)c3ccccc3)[C@]3(O)C[C@H](OC(=O)[C@H](O)[C@@H](NC(=O)c4ccccc4)c4ccccc4)C(C)=C1C3(C)C)[C@]1(OC(C)=O)CO[C@@H]1C[C@@H]2O` [PACLITAXEL] the IC50 (HCC1599) was 20.2 nM, the IC50 (K052) was 32.5 nM and the IC50 (MDA-MB-134-VI) was > 102 nM. For the same molecule, the IC50 (IST-SL2) was 42.7 nM, the IC50 (NCI-H719) was > 102 nM and the IC50 (U-698-M) was > 102 nM. The IC50 (BL-70) was 9.3 nM, the IC50 (IM-9) was > 102 nM and the IC50 (LP-1) was > 102 nM. The IC50 (EHEB) was > 102 nM and the IC50 (NCI-H64) was 38.6 nM.
With `N[C@@H](CSC(c1ccccc1)(c1ccccc1)c1ccccc1)C(=O)O` [S-TRITYL-L-CYSTEINE] the IC50 (HCC1599) was 1230 nM, the IC50 (K052) was 971 nM and the IC50 (MDA-MB-134-VI) was > 5120 nM. For the same molecule, the IC50 (IST-SL2) was 2260 nM, the IC50 (NCI-H719) was > 5120 nM and the IC50 (U-698-M) was > 5120 nM. For the same molecule, the IC50 (BL-70) was 547 nM, the IC50 (IM-9) was > 5120 nM and the IC50 (LP-1) was 3110 nM. The IC50 (EHEB) was > 5120 nM and the IC50 (NCI-H64) was 3480 nM.
In the case of `CC[C@H](CO)Nc1nc(NCc2ccccc2)c2ncn(C(C)C)c2n1` [SELICICLIB], the IC50 (HCC1599) is reported as 14600 nM, the IC50 (MDA-MB-134-VI) is reported as > 16000 nM and the IC50 (IST-SL2) is reported as > 16000 nM. For the same molecule, the IC50 (NCI-H719) was > 16000 nM, the IC50 (U-698-M) was > 16000 nM and the IC50 (BL-70) was > 16000 nM. The IC50 (IM-9) was > 16000 nM, the IC50 (LP-1) was > 16000 nM and the IC50 (EHEB) was > 16000 nM. The IC50 (NCI-H64) was > 16000 nM.
In the case of `CCN(CC)CCNC(=O)c1c(C)[nH]c(/C=C2\C(=O)Nc3ccc(F)cc32)c1C` [SUNITINIB], the IC50 (HCC1599) is reported as > 8000 nM, the IC50 (K052) is reported as 2400 nM and the IC50 (MDA-MB-134-VI) is reported as > 8000 nM. The IC50 (IST-SL2) was 6130 nM, the IC50 (NCI-H719) was > 8000 nM and the IC50 (U-698-M) was > 8000 nM. The IC50 (BL-70) was 1120 nM, the IC50 (IM-9) was > 8000 nM and the IC50 (LP-1) was > 8000 nM. The IC50 (EHEB) was > 8000 nM and the IC50 (NCI-H64) was > 8000 nM.
